Consider 38 substances from patent US20120083522A1, “MODULATION OF INFLAMMATORY RESPONSES BY FACTOR XI” (Isis Pharmaceuitcals, inc., priority 2009, published 2012).

In the oligonucleotide strings, read from the 5' end, every base follows the letter of its sugar. An asterisk marks phosphorothioate; unmarked linkages are phosphodiester. Other units and linkages are bracketed, terminal groups are in braces. A string of capitals states the bases alone. e = 2'-O-(2-methoxyethyl) (MOE); [5mC] = 5-methylcytosine; d = 2'-deoxy (DNA)

The subject of the series is human Factor XI mRNA. Put plainly: Antisense inhibition in HepG2 cells by microwalk gapmers, 8,000 nM, electroporation (Example 14). In kind it is cell-based. The note with it: HepG2 cells, 8,000 nM. As for the experimental part:
These microwalk gapmers were tested in vitro. Cultured HepG2 cells at a density of 20,000 cells per well were transfected using electroporation with 8,000 nM antisense oligonucleotide. After a treatment period of approximately 24 hours, RNA was isolated from the cells and Factor XI mRNA levels were measured by quantitative real-time PCR. Factor XI mRNA levels were adjusted according to total RNA content, as measured by RIBOGREEN. Results are presented as percent inhibition of Factor XI, relative to untreated control cells.
The chimeric antisense oligonucleotides in Table 51 were designed as 5-10-5 MOE, 5-8-5 and 6-8-6 MOE gapmers. The first two listed gapmers in Table 51 are the original gapmers (ISIS 416850 and ISIS 416858) from which ISIS 445493-445543 were designed via microwalk, and are designated by an asterisk. The 5-10-5 gapmers are 20 nucleotides in length, wherein the central gap segment is comprised of ten 2′-deoxynucleotides and is flanked on both sides (in the 5′ and 3′ directions) by wings comprising five nucleotides each. The 5-8-5 gapmers are 18 nucleotides in length, wherein the central gap segment is comprised of eight 2′-deoxynucleotides and is flanked on both sides (in the 5′ and 3′ directions) by wings comprising five nucleotides each. The 6-8-6 gapmers are 20 nucleotides in length, wherein the central gap segment is comprised of eight 2′-deoxynucleotides and is flanked on both sides (in the 5′ and 3′ directions) by wings comprising six nucleotides each. For each of the motifs (5-10-5, 5-8-5 and 6-8-6), each nucleotide in the 5′ wing segment and each nucleotide in the 3′ wing segment has a 2′-MOE modification. The internucleoside linkages throughout each gapmer are phosphorothioate (P═S) linkages. All cytidine residues throughout each gapmer are 5-methylcytidines. “Human Target start site” indicates the 5′-most nucleotide to which the gapmer is targeted in the human sequence. “Human Target stop site” indicates the 3′-most nucleotide to which the gapmer is targeted in the human sequence. Each gapmer listed in Table 51 is targeted to SEQ ID NO: 1 (GENBANK Accession No. NM_000128.3). Each gapmer is Table 51 is also fully cross-reactive with the rhesus monkey Factor XI gene sequence, designated herein as SEQ ID NO: 274 (exons 1-15 GENBANK Accession No. NW—001118167.1). ‘Rhesus monkey start site’ indicates the 5′-most nucleotide to which the gapmer is targeted in the rhesus monkey sequence. ‘Rhesus monkey stop site’ indicates the 3′-most nucleotide to which the gapmer is targeted to the rhesus monkey sequence.
As to “445493 (antisense eA*e[5mC]*eA*eG*eT*eT*dT*d[5mC]*dT*dG*dG*d[5mC]*dA*dG*eG*e[5mC]*e[5mC]*eT*e[5mC]*eG) [compound 445493]”, the “Percent inhibition of human Factor XI mRNA levels” value (“Percent inhibition” for short) came out at 69%.

In the case of “445494 (antisense CACAGTTTCTGGCAGGCCTC; 6-8-6 gapmer chemistry, chemistry not fully specified) [compound 445494]”, the “Percent inhibition” value is 85%.

As to “445495 (antisense GCACAGTTTCTGGCAGGCCT; 6-8-6 gapmer chemistry, chemistry not fully specified) [compound 445495]”, the “Percent inhibition” value is reported as 89%.

For “445496 (antisense TGCACAGTTTCTGGCAGGCC; 6-8-6 gapmer chemistry, chemistry not fully specified) [compound 445496]”, the “Percent inhibition” value stood at 87%.

Consider “445497 (antisense GTGCACAGTTTCTGGCAGGC; 6-8-6 gapmer chemistry, chemistry not fully specified) [compound 445497]”, for which the “Percent inhibition” value came out at 81%.

For the substance “445499 (antisense TGGTGCACAGTTTCTGGCAG; 6-8-6 gapmer chemistry, chemistry not fully specified) [compound 445499]”, the “Percent inhibition” value was 75%.

“445500 (antisense TTGGTGCACAGTTTCTGGCA; 6-8-6 gapmer chemistry, chemistry not fully specified) [compound 445500]”: the “Percent inhibition” value worked out at 81%.

Turning to “445501 (antisense ATTGGTGCACAGTTTCTGGC; 6-8-6 gapmer chemistry, chemistry not fully specified) [compound 445501]”, the “Percent inhibition” value was 83%.

For “445502 (antisense e[5mC]*eA*eT*eT*eG*eG*dT*dG*d[5mC]*dA*d[5mC]*dA*dG*dT*eT*eT*e[5mC]*eT*eG*eG) [compound 445502]”, the “Percent inhibition” value came out at 83%.

As to “445506 (antisense eA*e[5mC]*eG*eG*e[5mC]*eA*dT*dT*dG*dG*dT*dG*d[5mC]*dA*e[5mC]*eA*eG*eT*eT*eT) [compound 445506]”, the “Percent inhibition” value is on record as 86%.

On to “445507 (antisense eG*eA*e[5mC]*eG*eG*e[5mC]*dA*dT*dT*dG*dG*dT*dG*d[5mC]*eA*e[5mC]*eA*eG*eT*eT) [compound 445507]”, for which the “Percent inhibition” value is 85%.

Regarding “445508 (antisense eG*eG*eA*e[5mC]*eG*eG*d[5mC]*dA*dT*dT*dG*dG*dT*dG*e[5mC]*eA*e[5mC]*eA*eG*eT) [compound 445508]”, the “Percent inhibition” value is recorded as 81%.

On to “445509 (antisense e[5mC]*eG*eG*eA*e[5mC]*eG*dG*d[5mC]*dA*dT*dT*dG*dG*dT*eG*e[5mC]*eA*e[5mC]*eA*eG) [compound 445509]”, for which the “Percent inhibition” value was determined as 84%.

Consider “445510 (antisense eG*e[5mC]*eG*eG*eA*e[5mC]*dG*dG*d[5mC]*dA*dT*dT*dG*dG*eT*eG*e[5mC]*eA*e[5mC]*eA) [compound 445510]”, for which the “Percent inhibition” value is 88%.

In the case of “445511 (antisense eA*eG*e[5mC]*eG*eG*eA*d[5mC]*dG*dG*d[5mC]*dA*dT*dT*dG*eG*eT*eG*e[5mC]*eA*e[5mC]) [compound 445511]”, the “Percent inhibition” value is 77%.

Turning to “445512 (antisense e[5mC]*eA*eG*e[5mC]*eG*eG*dA*d[5mC]*dG*dG*d[5mC]*dA*dT*dT*eG*eG*eT*eG*e[5mC]*eA) [compound 445512]”, the “Percent inhibition” value was found to be 79%.

In the case of “445513 (antisense eG*e[5mC]*eA*eG*e[5mC]*eG*dG*dA*d[5mC]*dG*dG*d[5mC]*dA*dT*eT*eG*eG*eT*eG*e[5mC]) [compound 445513]”, the “Percent inhibition” value is given as 85%.

Take “445514 (antisense eG*eG*e[5mC]*eA*eG*e[5mC]*dG*dG*dA*d[5mC]*dG*dG*d[5mC]*dA*eT*eT*eG*eG*eT*eG) [compound 445514]”: the “Percent inhibition” value is reported as 81%.

Turning to “445515 (antisense eT*eG*eG*e[5mC]*eA*eG*d[5mC]*dG*dG*dA*d[5mC]*dG*dG*d[5mC]*eA*eT*eT*eG*eG*eT) [compound 445515]”, the “Percent inhibition” value is 75%.

With “445516 (antisense e[5mC]*eT*eG*eG*e[5mC]*eA*dG*d[5mC]*dG*dG*dA*d[5mC]*dG*dG*e[5mC]*eA*eT*eT*eG*eG) [compound 445516]”, the “Percent inhibition” value is 79%.

As to “445517 (antisense eA*e[5mC]*eT*eG*eG*e[5mC]*dA*dG*d[5mC]*dG*dG*dA*d[5mC]*dG*eG*e[5mC]*eA*eT*eT*eG) [compound 445517]”, the “Percent inhibition” value is reported as 74%.

Regarding “445518 (antisense eA*eG*eT*eT*eT*d[5mC]*dT*dG*dG*d[5mC]*dA*dG*dG*e[5mC]*e[5mC]*eT*e[5mC]*eG) [compound 445518]”, the “Percent inhibition” value came to 75%.

Take “445519 (antisense e[5mC]*eA*eG*eT*eT*dT*d[5mC]*dT*dG*dG*d[5mC]*dA*dG*eG*e[5mC]*e[5mC]*eT*e[5mC]) [compound 445519]”: the “Percent inhibition” value came out at 81%.

Turning to “445520 (antisense eA*e[5mC]*eA*eG*eT*dT*dT*d[5mC]*dT*dG*dG*d[5mC]*dA*eG*eG*e[5mC]*e[5mC]*eT) [compound 445520]”, the “Percent inhibition” value is 82%.

Regarding “445521 (antisense e[5mC]*eA*e[5mC]*eA*eG*dT*dT*dT*d[5mC]*dT*dG*dG*d[5mC]*eA*eG*eG*e[5mC]*e[5mC]) [compound 445521]”, the “Percent inhibition” value was determined as 87%.

For “445523 (antisense eT*eG*e[5mC]*eA*e[5mC]*dA*dG*dT*dT*dT*d[5mC]*dT*dG*eG*e[5mC]*eA*eG*eG) [compound 445523]”, the “Percent inhibition” value was 73%.

As to “445524 (antisense eG*eT*eG*e[5mC]*eA*d[5mC]*dA*dG*dT*dT*dT*d[5mC]*dT*eG*eG*e[5mC]*eA*eG) [compound 445524]”, the “Percent inhibition” value is 75%.

Regarding “445525 (antisense eG*eG*eT*eG*e[5mC]*dA*d[5mC]*dA*dG*dT*dT*dT*d[5mC]*eT*eG*eG*e[5mC]*eA) [compound 445525]”, the “Percent inhibition” value turned out to be 85%.

For “445526 (antisense eT*eG*eG*eT*eG*d[5mC]*dA*d[5mC]*dA*dG*dT*dT*dT*e[5mC]*eT*eG*eG*e[5mC]) [compound 445526]”, the “Percent inhibition” value came out at 81%.

Turning to “445527 (antisense eT*eT*eG*eG*eT*dG*d[5mC]*dA*d[5mC]*dA*dG*dT*dT*eT*e[5mC]*eT*eG*eG) [compound 445527]”, the “Percent inhibition” value was 70%.

Turning to “445528 (antisense eA*eT*eT*eG*eG*dT*dG*d[5mC]*dA*d[5mC]*dA*dG*dT*eT*eT*e[5mC]*eT*eG) [compound 445528]”, the “Percent inhibition” value is given as 73%.

As to “445529 (antisense e[5mC]*eA*eT*eT*eG*dG*dT*dG*d[5mC]*dA*d[5mC]*dA*dG*eT*eT*eT*e[5mC]*eT) [compound 445529]”, the “Percent inhibition” value is listed as 85%.

For the substance “445530 (antisense eG*e[5mC]*eA*eT*eT*dG*dG*dT*dG*d[5mC]*dA*d[5mC]*dA*eG*eT*eT*eT*e[5mC]) [compound 445530]”, the “Percent inhibition” value is given as 83%.

Take “445533 (antisense eA*e[5mC]*eG*eG*e[5mC]*dA*dT*dT*dG*dG*dT*dG*d[5mC]*eA*e[5mC]*eA*eG*eT) [compound 445533]”: the “Percent inhibition” value amounted to 87%.

As to “445534 (antisense eG*eA*e[5mC]*eG*eG*d[5mC]*dA*dT*dT*dG*dG*dT*dG*e[5mC]*eA*e[5mC]*eA*eG) [compound 445534]”, the “Percent inhibition” value was 82%.

For the substance “445535 (antisense eG*eG*eA*e[5mC]*eG*dG*d[5mC]*dA*dT*dT*dG*dG*dT*eG*e[5mC]*eA*e[5mC]*eA) [compound 445535]”, the “Percent inhibition” value is 83%.

For the substance “445536 (antisense e[5mC]*eG*eG*eA*e[5mC]*dG*dG*d[5mC]*dA*dT*dT*dG*dG*eT*eG*e[5mC]*eA*e[5mC]) [compound 445536]”, the “Percent inhibition” value worked out at 82%.

As for “445537 (antisense eG*e[5mC]*eG*eG*eA*d[5mC]*dG*dG*d[5mC]*dA*dT*dT*dG*eG*eT*eG*e[5mC]*eA) [compound 445537]”, the “Percent inhibition” value stood at 78%.
